pKd: −log10 of the molar value. Where two headings read alike, the source gives them in different places.

The target in assay [1] is T1, Human Serum Albumin (HSA) (Homo sapiens, UniProt P02768).
T1 construct: purchased Sigma-Aldrich
Briefly: Fluorescence quenching of HSA (Stern-Volmer and double-logarithmic plots). In kind it is binding. The settings on record: for blue shift in the emission maximum of HSA: excitation 280nm, from 342 nm, throughout the titration. As for the experimental part: (§1) Lipase and HSA were dialyzed against KCl- buffer (pH 7) for 24 hrs. Stock solution of lipase was prepared in 10 mM phosphate buffer at pH 7.4 to obtain a particular concentration. […] These samples were incubated at 298.0 K for about 24 hrs.
(§2) Fluorescence spectra were recorded on Hitachi F-4010 spectrofluorometer equipped with circulating water bath to maintain the temperature of the cell. The quartz cell of path length 1.0 cm and band slit of 5.0 nm were used for all experiments. The excitation wavelength was 280 nm for lipase and HSA. Emission spectra were recorded from 300–450 nm for lipase and HSA protein.
(§3) Herein, the fluorescence intensities were corrected for absorption of the exciting light and reabsorption of the emitted light to decrease the inner filter effect according to the following equation [10] (Chi & Liu, 2011): Fcorr=Fobs10^Aex+Aem/2, Where Fcorr and Fobs are corrected and experimentally measured fluorescence intensities, respectively. […] The fluorescence intensity utilized in this paper was the corrected intensity.
(§4) The HSA were excited at 280nm and spectra were taken from 300nm to […].
The plot of F0/F against [linalool] at 298K is given as S3A Fig. The values of ksv and kq could be calculated from the slope of curves. The average lifetime of the fluorophore in the absence of the ligand as 6.38 × 10^−9 s for HSA [23]. […] Ka and ‘n’ were calculated from equation: Log[(F0–F)/F] = logKa + n log[linalool].

For assay [2], the system named is Aspergillus niger lipase. Briefly: Lipase inhibition assay with pNPP substrate. The settings on record: for inhibition of lipase activity (in words): 0.5 mmoles/litre to 1.5 mmoles/litre, pNPP as substrate; for inhibition of lipase: 1.5 mmol/litre, para-nitrophenyl palmitate (pNPP) substrate, 37°C; for lipase activity: at about 1.5mmoles/litre. In kind it is biochemical. How it is done:
Lipase assays were performed in a 96-well, clear, flat-bottomed plate with 200 μl reaction volume. pNPP was used as a substrate with a reaction buffer of 50 mM sodium phosphate, 5 mM sodium taurocholate, and 10% isopropanol at pH 8.0 [8, 9]. Lipase assays was performed in 200 μl reaction volume and substrate conversion was monitored with a Multiskan Go spectrophotometer (Thermo Scientific) at 410 nm. All assays were run at 37°C and reported results are the average of three replicates that were blank subtracted. The Lipase inhibitory activity was expressed as percentage inhibition calculated as: % Inhibition = [(Acontrol − Atest sample)/[…]]*100.
Significant inhibition was obtained at 0.5 mmoles/litre. For all three molecules indicating structural changes begin well below this concentration. According to all binding experiments have been performed in concentration range at 50 μM to 400 μM.

Assay [3] has as its target T2, HSA (Homo sapiens, UniProt P02768). Description: Intrinsic Trp214 fluorescence quenching of HSA (excitation 280 nm, ligand 50-400 uM, inner-filter corrected), 10 mM phosphate pH 7.4, 298 K; Ka from double-logarithmic plot. In kind it is binding. Also noted: gene ALB; commercial (Sigma-Aldrich), dialyzed. The settings on record: read-out: Ka(M^-1) (converted). How it is done: as §1, §2, §3, §4
The plot of F0/F against [linalool] at 298K is given as S3A Fig. The values of ksv and kq could be calculated from the slope of curves. […] Ka and ‘n’ were calculated from equation: Log[(F0–F)/F] = logKa + n log[linalool].

The target in assay [4] is T2, HSA. Description: UV-Vis absorption spectroscopy of HSA. In kind it is binding. The arrangement: purchased Sigma-Aldrich. The following applies: HSA 0.4mg/ml, shifted from 278 nm, 298.15 K, pH 7.4. An excerpt:
UV-visible absorbance spectra were obtained using JASCO, V-560 spectrophotometer in the wavelength range 240 to 340 nm. The baseline was corrected for each spectrum.

In assay [5] the test system is Aspergillus niger lipase. Description: Fluorescence quenching of lipase (Stern-Volmer and double-logarithmic plots). In kind it is binding. The following applies: for binding affinity with Aspergillus niger lipase (order of magnitude): conclusion, unit not given; for ksv (Stern-Volmer constant): pH 7.4, ligand 50-400 μM; for kq (quenching rate constant): pH 7.4, τ0 10^-9 s. How it is done:
as §1, §2, §3
(§5) Emission fluorescence spectra were measured in the 300–450 nm interval, at a fixed excitation wavelength of 280 nm. Occurrence of an emission maximum at 344 nm in the fluorescence spectrum of lipase can be attributed to the presence of tryptophan residue of lipase. Even though the intrinsic fluorescence of pancreatic lipase is attributed to three amino acid residues, phenylalanine (Phe), tyrosine (Tyr), and tryptophan (Trp), the fluorescence of Phe and Tyr residues at this wavelength is negligible, so intrinsic fluorescence of the fungal enzyme is mainly due to Trp. […] Several earlier reports have shown similar fluorescence quenching of protein upon interaction with various drug molecules, without any shift in the emission maximum. The observed quenching in the protein fluorescence can be induced by a variety of molecular interactions such as rearrangement of molecules, ground-state complex formation, excited-state reactions, energy transfer and collisional quenching.
In order to gain insight into quenching mechanism involved in linalool-lipase, carvacrol- lipase and thymol- lipase interaction, or to gain further insight into the mechanism of tertiary structure we analysed the fluorescence quenching data using Stern–Volmer equation. […] S1A–S1C Fig and Table 1. gives ksv and kq values of Lipase—lin as 1.73 x 10^4 M^-1 and 1.73 x 10^13 M^-1s^-1, Lipase—car as 2.17 x 10^3 and 2.17 x 10^12, Lipase—thy as 1.76 x 10^4 and 1.76 x 10^13 respectively. […] Binding constant and number of binding sites were determined by plotting log (F0—F)/F versus log [ligand] according to equation: Log[(F0–F)/F=logKa+nlogligand] where Ka and n are binding constants and stoichiometry of association process respectively. Linear relationship is obtained from log(F− F0) / F versus log[ligand].

Another assay addresses T3, lipase.
T3 construct: commercial (Sigma-Aldrich), dialyzed
Description: Intrinsic Trp fluorescence quenching of A. niger lipase (excitation 280 nm, ligand 50-400 uM, inner-filter corrected), 10 mM phosphate pH 7.4, samples incubated at 298 K for about 24 h; Ka from double-logarithmic plot. It is filed as binding. How it is done:
as §1, §2, §3
as §5, with “quenching. […]” for “quenching.”

Assay [6] concerns the target T1, Human Serum Albumin (HSA). Briefly: Far-UV circular dichroism of HSA. The settings on record: 24 hours at 298.15 K, pH 7.4, native -17.76. How it is done: CD spectra were obtained over wavelength range of 200–250 nm on Jasco-1500 CD Spectrometer equipped with peltier type temperature controller. 0.1cm quartz cell were used to measure far UV CD spectrum. The concentration of protein used was 0.2 mg/ml (lipase) and 0.35 mg/ml (HSA). Each spectrum was scanned thrice and finally average of 3 was used to analyse the results.
A general note: Circular dichroism is the unequal absorption of left and right circularly polarised light.

T2 sequence (P02768 25-609): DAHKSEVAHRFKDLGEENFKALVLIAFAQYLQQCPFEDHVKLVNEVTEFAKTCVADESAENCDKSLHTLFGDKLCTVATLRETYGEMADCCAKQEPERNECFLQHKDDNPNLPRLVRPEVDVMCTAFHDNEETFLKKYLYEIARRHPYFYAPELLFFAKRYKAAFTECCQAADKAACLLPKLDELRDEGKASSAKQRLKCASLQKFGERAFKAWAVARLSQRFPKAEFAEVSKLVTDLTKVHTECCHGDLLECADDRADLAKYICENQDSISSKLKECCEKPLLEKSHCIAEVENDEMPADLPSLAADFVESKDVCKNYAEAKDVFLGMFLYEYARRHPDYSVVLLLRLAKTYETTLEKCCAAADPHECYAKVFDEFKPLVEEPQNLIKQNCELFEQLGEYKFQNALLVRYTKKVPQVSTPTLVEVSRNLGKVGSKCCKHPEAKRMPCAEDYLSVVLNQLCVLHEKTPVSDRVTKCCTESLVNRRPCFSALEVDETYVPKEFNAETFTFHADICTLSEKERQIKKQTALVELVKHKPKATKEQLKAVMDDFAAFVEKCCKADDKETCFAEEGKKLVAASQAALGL
T1 sequence (P02768 25-609): as above

As to `Cc1ccc(C(C)C)cc1O` [carvacrol], in assay [1], the pKd (usually −log10 of the Kd, conventionally taken in molar units) is approximately 4.00 and the “blue shift in the emission maximum of HSA” value amounted to 1 nm. The “n (number of binding site)” value in assay [1] (HSA) stood at 1.29. The “kq (quenching rate constant)” value in assay [1] (HSA, 298K) worked out at 2.33e+12 M⁻¹ s⁻¹. For the same compound, in assay [1] (HSA, 298K, ligand 50-400 μM), the “ksv (Stern-Volmer quenching constant)” value was 2330 M⁻¹. Further, in assay [1] (HSA, double-logarithmic plot), the “Ka (binding constant)” value worked out at 22000 M⁻¹. In the assay with Aspergillus niger lipase [2], the “inhibition of lipase activity (in words)” value was “markedly inhibited lipase activity”, the inhibition of lipase result was “approximately 50%” and the lipase activity entry was “approximately 50%”. In addition, the Kd on HSA [3] is 45.5 µM. Besides, the “maximum absorption peak position of ligand-HSA complex” value (“maximum absorption peak position” below) on HSA [4] is on record as 278.2 nm. Moreover, in the assay on Aspergillus niger lipase [5], the “strength of binding to lipase (in words)” value is given as “strong binders” and the “binding affinity with Aspergillus niger lipase (order of magnitude)” value is ~10^7. Moreover, in the assay with Aspergillus niger lipase [5] (lipase, pH 7.4, double-logarithmic plot), the “Ka (binding constant)” value stood at 4.66e+07 M⁻¹. In the assay on Aspergillus niger lipase [5] (lipase), the “ksv (Stern-Volmer constant)” value worked out at 2170 M⁻¹ and the “kq (quenching rate constant)” value was 2.17e+12 M⁻¹ s⁻¹. Besides, the “Ka” value on lipase worked out at 4.6e+07 M⁻¹. Moreover, in assay [6], the “MRE x 10^3 at 222nm (complex_400 μM)” value is given as -24.91.

As to `C=CC(C)(O)CCC=C(C)C` (stereo not shown) [linalool], in assay [1], the pKd is approximately 4.00 and the “blue shift in the emission maximum of HSA” value turned out to be 2 nm. For the same compound, in assay [1] (HSA), the “n (number of binding site)” value was 1.36. Besides, the “kq (quenching rate constant)” value in assay [1] (HSA, 298K) was 3.32e+12 M⁻¹ s⁻¹. Besides, the “ksv (Stern-Volmer quenching constant)” value in assay [1] (HSA, 298K, ligand 50-400 μM) amounted to 3320 M⁻¹. Also, the association constant / binding affinity with HSA (order of magnitude) in assay [1] (unit inferred) is approximately 10000 M⁻¹. In addition, in the assay on Aspergillus niger lipase [2], the “inhibition of lipase activity (in words)” value is listed as “markedly inhibited lipase activity”, the inhibition of lipase result was “approximately 50%” and the lipase activity result was “approximately 50%”. Further, the Kd at HSA [3] is 29.4 µM. Also, the “maximum absorption peak position” value on HSA [4] was found to be 278.5 nm. In the assay with Aspergillus niger lipase [5], the “strength of binding to lipase (in words)” value is given as “weak binder” and the “binding affinity with Aspergillus niger lipase (order of magnitude)” value was ~10^3. Moreover, in the assay with Aspergillus niger lipase [5] (lipase), the “ksv (Stern-Volmer constant)” value turned out to be 17300 M⁻¹ and the “kq (quenching rate constant)” value was found to be 1.73e+13 M⁻¹ s⁻¹. Also, the “Ka” value on lipase turned out to be 5300 M⁻¹. Also, in assay [6], the “MRE x 10^3 at 222nm (complex_400 μM)” value is on record as -23.13.

Take `Cc1ccc(C(C)C)c(O)c1` [thymol]: in assay [1], the “kq (quenching rate constant)” value turned out to be 3.21e+13 M⁻¹ s⁻¹ and the “ksv (Stern-Volmer quenching constant)” value was found to be 32100 M⁻¹. In addition, in the assay on Aspergillus niger lipase [2], the “inhibition of lipase activity (in words)” value is on record as “markedly inhibited lipase activity”, the inhibition of lipase result is given as “approximately 50%” and the lipase activity result is “approximately 50%”. Also, the “maximum absorption peak position” value at HSA [4] was 278.4 nm. Further, in the assay on Aspergillus niger lipase [5], the “strength of binding to lipase (in words)” value is given as “strong binders” and the “binding affinity with Aspergillus niger lipase (order of magnitude)” value was ~10^9. Besides, in the assay with Aspergillus niger lipase [5] (lipase), the “ksv (Stern-Volmer constant)” value came out at 17600 M⁻¹ and the “kq (quenching rate constant)” value amounted to 1.76e+13 M⁻¹ s⁻¹. On lipase, the “Ka” value came to 2.6e+09 M⁻¹.

The values are drawn from paper PMC9135303, “Interaction of fungal lipase with potential phytotherapeutics” (PLoS ONE, 2022).
